Values quoted from earlier work in US20220248734A1, “NUTRITIONAL HEALTH SUPPLEMENTS” (MAYO FOUNDATION FOR MEDICAL EDUCATION AND RESEARCH, priority 2019, published 2022).

Settings: NAC received within 24 hours of head injury from a blast

For `CC(=O)N[C@@H](CS)C(=O)O` [NAC, N-acetyl cysteine], the side effects is given as “no reported side effects” and the symptom resolution is given as “significantly increases symptom resolution”.
